In US20100273203A1 (priority 2009, published 2010):
Read-outs that look alike come from different tables or passages of the source.

How the values were obtained:
[1] = LC-MS/MS urinary metabolic profile of patients receiving warfarin; settings: for % R / % S (proportion in (S)-enantiomeric form) / % conjugated (proportion glucuronidated) / urinary concentration: urine; for urinary concentration: free and conjugated
Description: All chemicals used in this study were of at least reagent grade. Unless otherwise specified, all chemicals and reagents were purchased from either Sigma-Aldrich (St. Louis, Mo.) or Thermo Fisher Scientific (Waltham, Mass.). […] Ethyl alcohol (100%) was purchased from AAPER (Shelbyville, Ky.). Re-combinant CYP2C9*1, CYP3A4, CYP1A2, and CYP2C19 were expressed in baculovirus-infected insect cells and purchased from BD Biosciences (San Jose, Calif.). Commercially available urine specimens from three females (F84, F85, and F87) were provided by the Emergency Response and Air Toxicants Branch, Division of Laboratory Science National Center for Environmental Health Centers for Disease Control and Prevention (DeKalb County, Ga.). Patient studies were conducted under IRB-approved protocols, and all patients signed informed consent documentation.
This analytical phase was accomplished by reverse-phase HPLC using a 4.6 mm×150 mm C18 Zorbax Eclipse 5 μm XDB-C18 column provided by Agilent (Santa Clara, Calif.). The operating temperature was 40° C., and the sample injection volume was 5.0 μL. HPLC mobile phases consisted H2O (0.1% acetic acid v/v) (A) and methanol (0.1% acetic acid v/v) (B). The flow rate was 1 mL/min. […] The total run time per sample was 10 min. Specific MS/MS experimental conditions used in this study are noted in Table 1.
To determine the relative abundance of the (R)-and (S)-enantiomers of each metabolite, a 4.6 mm×25 cm Chirobiotic V5 μm column supplied by Supelco (Bellefonte, Pa.) was incorporated during the second analytical phase. Mobile phases consisted of H2O (0.1% acetic acid v/v) (A) and acetonitrile (0.1% acetic acid v/v) (B) with a flow rate of 800 μL/min. Enantiomeric separations were accomplished under isocratic conditions (80% A and 20% B). The sample injection volume was 15.0 μL. Enantiomeric MS/MS analyses were performed in negative ion mode by electrospray ionization (ESI) using a Turbo IonSpray source. A total run time of 20 min was required for adequate resolution. Specific MS/MS experimental conditions used in this study are noted in the Table 2.
Each response was normalized to that of the internal standard, 7-hydroxycoumarin (10 μM). […] Measurements of these three metabolites were calculated by taking the difference of the amount measured in the first analytical phase, which contained both (R)-and (S) isomers from the amount of the (S)-isomer measured in the second analytical phase (eq 3). Glucuronidated metabolites were measured by incubating 250 μL of urine with 2000 units of GUS in 100 mM sodium acetate buffer, pH 5.0. The final volume for each of these reactions was 1 mL. Control reactions omitting GUS were included with each sample set. Reactions were incubated overnight at 37° C., after which they were stored at −80° C. Immediately before analysis, both samples were diluted with an equal volume of ethanol containing 7-hydroxycoumarin (10 μM final concentration). The difference between GUS-treated samples and controls represented the amount of glucuronidated metabolites present.

UGT1A10 = UGT1A10 (Homo sapiens, UniProt Q9HAW8); settings: glucuronidation; racemic OHWars
Sequence of UGT1A10 (Q9HAW8 26-530): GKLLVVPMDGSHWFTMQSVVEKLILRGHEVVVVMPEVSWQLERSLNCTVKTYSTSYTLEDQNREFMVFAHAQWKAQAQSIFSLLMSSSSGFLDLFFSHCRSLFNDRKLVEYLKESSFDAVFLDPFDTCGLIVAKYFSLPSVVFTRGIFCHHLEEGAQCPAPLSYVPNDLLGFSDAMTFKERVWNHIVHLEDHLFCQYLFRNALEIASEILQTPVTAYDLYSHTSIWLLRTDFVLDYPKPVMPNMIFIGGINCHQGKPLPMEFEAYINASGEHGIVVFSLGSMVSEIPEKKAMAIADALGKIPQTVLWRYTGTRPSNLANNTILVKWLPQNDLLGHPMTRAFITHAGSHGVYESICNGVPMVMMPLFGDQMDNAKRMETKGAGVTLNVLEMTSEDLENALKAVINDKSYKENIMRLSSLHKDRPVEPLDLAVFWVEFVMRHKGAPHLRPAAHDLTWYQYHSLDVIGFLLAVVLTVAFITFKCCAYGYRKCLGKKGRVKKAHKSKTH
Description: (§1) The characterization of hepatic and extrahepatic glucuronidation may be made based on glucuronidation studies with 100 commercially available HLM and 100 intestinal microsomal preparations available in our laboratory. […] Both racemic mixtures and separated R and S enantiomers may be assayed. […] Activities of extrahepatic (UGT1A8 and UGT1A10) and hepatic (UGT1A1, UGT1A3, and UGT1A9) isoforms may be compared to that of their respective microsomal preparations, and assign the contribution of specific UGTs to product formation by the human samples.

UGT1A8 = UGT1A8 (Homo sapiens, UniProt Q9HAW9); settings: glucuronidation; racemic OHWars
Sequence of UGT1A8 (Q9HAW9 26-530): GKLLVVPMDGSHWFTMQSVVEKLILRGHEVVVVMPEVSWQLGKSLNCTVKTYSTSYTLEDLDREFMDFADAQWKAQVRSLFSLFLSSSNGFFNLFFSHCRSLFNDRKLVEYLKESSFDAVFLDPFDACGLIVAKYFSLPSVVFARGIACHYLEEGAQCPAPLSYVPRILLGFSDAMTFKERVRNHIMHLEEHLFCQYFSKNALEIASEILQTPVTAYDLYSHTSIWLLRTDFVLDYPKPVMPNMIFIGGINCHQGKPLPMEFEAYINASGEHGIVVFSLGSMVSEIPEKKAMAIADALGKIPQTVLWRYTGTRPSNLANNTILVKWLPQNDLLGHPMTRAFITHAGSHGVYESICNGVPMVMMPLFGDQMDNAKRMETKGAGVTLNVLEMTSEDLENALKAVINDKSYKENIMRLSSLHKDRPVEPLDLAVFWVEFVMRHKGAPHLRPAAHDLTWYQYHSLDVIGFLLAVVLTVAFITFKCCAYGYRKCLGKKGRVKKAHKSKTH
Description: as §1

UGT1A9 = UGT1A9 (Homo sapiens, UniProt O60656); settings: glucuronidation; racemic OHWars
Sequence of UGT1A9 (O60656 26-530): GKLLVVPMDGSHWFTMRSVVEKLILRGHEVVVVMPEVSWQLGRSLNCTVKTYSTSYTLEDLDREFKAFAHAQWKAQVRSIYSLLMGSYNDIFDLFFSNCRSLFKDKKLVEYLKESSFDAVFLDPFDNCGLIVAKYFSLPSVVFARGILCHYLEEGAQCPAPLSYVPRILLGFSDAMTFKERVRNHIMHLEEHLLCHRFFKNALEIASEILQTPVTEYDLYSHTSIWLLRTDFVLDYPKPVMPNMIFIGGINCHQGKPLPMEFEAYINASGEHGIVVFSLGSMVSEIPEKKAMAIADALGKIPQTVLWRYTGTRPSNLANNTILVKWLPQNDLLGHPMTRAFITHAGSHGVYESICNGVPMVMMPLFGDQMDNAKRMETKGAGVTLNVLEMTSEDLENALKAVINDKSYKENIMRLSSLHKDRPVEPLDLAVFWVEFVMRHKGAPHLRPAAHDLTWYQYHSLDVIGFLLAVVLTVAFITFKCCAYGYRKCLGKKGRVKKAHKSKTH
Description: as §1

CYP2C9 [2] = biological target: T1, CYP2C9 (Homo sapiens, UniProt P11712); settings: read-out: IC50 toward recombinant CYP2C9 activity; P450-Glo, 50 μM Luciferin H; racemic compounds
T1 sequence (P11712 whole entry): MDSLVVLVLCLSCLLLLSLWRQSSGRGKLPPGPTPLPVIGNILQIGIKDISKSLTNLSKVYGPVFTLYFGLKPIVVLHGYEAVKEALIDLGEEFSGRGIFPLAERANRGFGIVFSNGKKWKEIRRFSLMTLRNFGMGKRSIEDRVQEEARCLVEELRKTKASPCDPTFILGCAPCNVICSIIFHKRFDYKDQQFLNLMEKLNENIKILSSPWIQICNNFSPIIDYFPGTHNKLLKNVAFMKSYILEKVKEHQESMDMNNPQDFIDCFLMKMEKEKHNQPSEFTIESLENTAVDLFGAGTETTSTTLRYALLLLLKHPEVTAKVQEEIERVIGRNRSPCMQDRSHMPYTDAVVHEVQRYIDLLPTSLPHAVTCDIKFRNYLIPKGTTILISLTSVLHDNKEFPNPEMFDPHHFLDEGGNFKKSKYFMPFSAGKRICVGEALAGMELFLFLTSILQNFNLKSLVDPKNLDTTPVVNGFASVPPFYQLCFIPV
Method: Hydroxywarfarins were screened for inhibitory potential toward recombinant CYP2C9 using the Promega (Madison, Wis.) CY2C9 P450-Glo™ Assay using the manufacturer's protocol. These IC50 studies were analyzed on a PerkinElmer Victor^3V™ 1420 Multilabel Counter. Recombinant CYP2C9, 50 nM, was incubated with 50 μM Luciferin H, and six concentrations of each hydroxywarfarin from approximately 10 nM to 4 mM final concentration, as optimized for each compound. The appropriate volume of hydroxywarfarin stocks in 100% ethanol were added to each well prior to addition of the substrate and enzyme, and the ethanol was allowed to evaporate at room temperature to minimize solvent effects on CYP2C9 activity. A final DMSO concentration of 1% was present in the reactions due to the P450-Glo Luciferin H. The reaction was initiated upon addition of an NADPH regenerating solution (BD Biosciences) and quenched with a luciferase quench (Promega) at 30 min.

[3] = biological target: CYP2C9 present in the human liver microsomes (Homo sapiens, UniProt P11712); settings: for Ki / Mechanism of inhibition: S-warfarin metabolism
Sequence of CYP2C9 present in the human liver microsomes (P11712 whole entry): as above
Method: (§2) For each hydroxywarfarin, at least 4 independent experimental replicates were performed.
(§3) MS/MS experimental conditions was used as described previously (6).
(§4) The most probable inhibition mechanism for recombinant CYP2C9 and human liver microsome reactions was identified using DynaFit ver. 3.28 (Biokin, Ltd) (20). Data from each set of hydroxywarfarin experiments were fit to traditional reversible inhibition mechanisms (competitive, uncompetitive, noncompetitive, or mixed). The respective kinetic parameters (Ki and Ki′) were set as variables, while the kinetic parameters (Vmax and Km) were constants based on values obtained from uninhibited reactions. The most probable mechanism was then identified using the Akaike Information Criterion (AICc) for model discrimination (21).

CYP2C9*1 [4] = biological target: T2, CYP2C9*1 (Homo sapiens, UniProt P11712); settings: for Ki / Mechanism of inhibition: S-warfarin metabolism
Method: as §2, §3, §4

CYP1A2 [5] = biological target: T3, CYP1A2 (Homo sapiens, UniProt P05177); settings: read-out: IC50 for CYP marker reaction; P450-Glo marker reaction
T3 sequence (P05177 1-516): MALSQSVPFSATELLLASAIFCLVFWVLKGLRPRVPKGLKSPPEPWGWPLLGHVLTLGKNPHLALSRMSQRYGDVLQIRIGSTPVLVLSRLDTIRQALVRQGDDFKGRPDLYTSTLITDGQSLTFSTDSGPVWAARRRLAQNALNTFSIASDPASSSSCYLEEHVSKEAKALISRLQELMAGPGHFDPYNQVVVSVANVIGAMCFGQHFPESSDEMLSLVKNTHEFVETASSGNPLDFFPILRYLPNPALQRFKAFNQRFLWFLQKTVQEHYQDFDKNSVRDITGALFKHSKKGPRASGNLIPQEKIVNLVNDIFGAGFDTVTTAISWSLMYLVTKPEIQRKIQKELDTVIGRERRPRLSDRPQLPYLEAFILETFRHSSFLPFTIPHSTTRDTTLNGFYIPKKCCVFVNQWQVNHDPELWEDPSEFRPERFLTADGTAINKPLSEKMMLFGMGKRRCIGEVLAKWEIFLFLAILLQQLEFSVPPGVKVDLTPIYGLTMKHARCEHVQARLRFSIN

CYP2C9*1 [6] = biological target: T2, CYP2C9*1; settings: read-out: IC50 for CYP marker reaction; P450-Glo marker reaction
CYP3A4 [7] = biological target: T4, CYP3A4 (Homo sapiens, UniProt P08684); settings: read-out: IC50 for CYP marker reaction; P450-Glo marker reaction
T4 sequence (P08684 whole entry): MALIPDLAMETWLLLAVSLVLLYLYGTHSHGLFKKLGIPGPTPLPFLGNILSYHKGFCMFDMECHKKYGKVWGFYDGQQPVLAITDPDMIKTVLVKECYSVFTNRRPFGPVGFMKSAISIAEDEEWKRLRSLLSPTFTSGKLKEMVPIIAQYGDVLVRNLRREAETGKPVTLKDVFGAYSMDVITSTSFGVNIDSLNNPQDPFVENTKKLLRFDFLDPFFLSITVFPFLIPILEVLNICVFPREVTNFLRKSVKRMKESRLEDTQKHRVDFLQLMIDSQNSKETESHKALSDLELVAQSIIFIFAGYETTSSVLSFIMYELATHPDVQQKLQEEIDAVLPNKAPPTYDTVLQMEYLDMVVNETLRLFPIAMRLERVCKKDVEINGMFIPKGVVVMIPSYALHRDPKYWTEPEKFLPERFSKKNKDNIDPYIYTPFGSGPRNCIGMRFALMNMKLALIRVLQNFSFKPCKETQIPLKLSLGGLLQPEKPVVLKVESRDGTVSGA

plasma proteins = settings: cited from earlier work
CYP2C9 [8] = biological target: T1, CYP2C9; settings: read-out: reported Km; cited from earlier work
CYP1A2 [9] = biological target: T3, CYP1A2; assay: biochemical
CYP2C9 [10] = biological target: T1, CYP2C9; settings: not metabolized by CYP2C9; cited from earlier work
CYP3A4 [11] = biological target: T4, CYP3A4; assay: Steady-state metabolism of R- and S-warfarin by recombinant CYP3A4
Method: (§5) Reactions were initiated upon addition of an NADPH regenerating system [2 μU μL-1 glucose 6-phosphate dehydrogenase, 10 mM glucose 6-phosphate, 2 mM MgCl2, 1 mM NADP^+]. […] The quenched reactions were centrifuged and the resulting supernatant containing substrate and products resolved and quantified by UPLC-MS/MS. Each experiment was performed in at least 4 independent experimental replicates.
(§6) The flow rate was constant at 250 μL/min. […] Electrospray conditions were as follows: spray voltage of 4500 V, sheath gas pressure 45, auxiliary gas pressure 20, and collision energy of 15-15 eV (compound specific).
(§7) Final metabolite concentrations were calculated from the ratio of metabolite area to internal standard area in the sample and compared to calibration curves as determined from the UPLC-MS/MS method. All compounds were quantified relative to authentic standards. The resulting kinetic data were analyzed with GraphPad Prism 5® software. Non-linear regression analysis was used to fit steady-state data to the Michaelis-Menten equation to determine the Vmax and Km parameters.

CYP3A7 = CYP3A7 (Homo sapiens, UniProt P24462); assay: Steady-state metabolism of R- and S-warfarin by recombinant CYP3A7
Sequence of CYP3A7 (P24462 whole entry): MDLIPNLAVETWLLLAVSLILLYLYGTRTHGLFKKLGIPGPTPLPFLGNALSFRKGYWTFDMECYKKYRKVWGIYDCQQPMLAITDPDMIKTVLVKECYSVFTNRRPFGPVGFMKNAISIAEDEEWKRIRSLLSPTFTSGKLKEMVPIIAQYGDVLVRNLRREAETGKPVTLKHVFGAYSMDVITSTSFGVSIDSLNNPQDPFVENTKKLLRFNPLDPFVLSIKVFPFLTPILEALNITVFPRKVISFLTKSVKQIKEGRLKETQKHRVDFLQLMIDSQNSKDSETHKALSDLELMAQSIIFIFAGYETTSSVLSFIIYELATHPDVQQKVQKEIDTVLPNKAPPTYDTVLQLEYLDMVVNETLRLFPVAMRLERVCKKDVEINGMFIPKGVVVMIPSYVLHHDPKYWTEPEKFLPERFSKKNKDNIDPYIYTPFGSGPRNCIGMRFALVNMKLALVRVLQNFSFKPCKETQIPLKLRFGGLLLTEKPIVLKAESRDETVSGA
Method: as §5, §6, §7

UGT1A1 = UGT1A1 (Homo sapiens, UniProt P22309); settings: glucuronidation; racemic OHWars
Sequence of UGT1A1 (P22309 26-533): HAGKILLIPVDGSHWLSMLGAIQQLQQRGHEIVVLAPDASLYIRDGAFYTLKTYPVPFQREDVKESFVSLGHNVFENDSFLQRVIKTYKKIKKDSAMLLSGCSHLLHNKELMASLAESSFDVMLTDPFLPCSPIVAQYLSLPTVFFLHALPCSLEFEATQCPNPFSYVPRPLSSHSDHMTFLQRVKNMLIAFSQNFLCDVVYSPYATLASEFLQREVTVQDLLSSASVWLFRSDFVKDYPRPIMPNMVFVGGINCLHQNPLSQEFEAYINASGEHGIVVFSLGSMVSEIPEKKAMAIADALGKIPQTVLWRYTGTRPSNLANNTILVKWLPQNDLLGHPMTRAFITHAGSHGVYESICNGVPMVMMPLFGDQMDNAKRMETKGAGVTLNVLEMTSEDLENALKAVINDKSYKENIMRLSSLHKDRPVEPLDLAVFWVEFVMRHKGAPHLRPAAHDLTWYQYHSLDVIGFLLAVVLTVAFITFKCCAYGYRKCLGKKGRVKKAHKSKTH
Description: as §1

[12] = Estimated unbound levels in plasma of long-term warfarin therapy patients; settings: estimated from literature data
[13] = 7-hydroxywarfarin formation as marker
[14] = 10-hydroxywarfarin formation, 37° C, pH 7.4
[15] = based on S-6-hydroxywarfarin formation

Row | Compound | % R ([1]; patient F84) | % S (proportion in (S)-enantiomeric form) ([1]; patient F84) | % conjugated (proportion glucuronidated) ([1]; patient F84) | urinary concentration ([1]; patient F84) | % R ([1]; patient F85) | % S (proportion in (S)-enantiomeric form) ([1]; patient F85) | % conjugated (proportion glucuronidated) ([1]; patient F85) | urinary concentration ([1]; patient F85) | % R ([1]; patient F87) | % S (proportion in (S)-enantiomeric form) ([1]; patient F87) | % conjugated (proportion glucuronidated) ([1]; patient F87) | urinary concentration ([1]; patient F87) | Km (UGT1A10) | Vmax (UGT1A10) | IC50 (CYP2C9 [2]) | IC50 (CYP1A2 [5]) | IC50 (CYP2C9*1 [6]) | IC50 (CYP3A4 [7]) | plasma protein binding affinity relative to warfarin (plasma proteins) | further results
1 | CC(=O)CC(c1ccccc1)c1c(O)c2cccc(O)c2oc1=O (centres unmarked) [8-OH-WAR, 8-hydroxywarfarin] | 100% | 0% | 31% | 111 nM | 98% | 2% | 53% | 109 nM | 69% | 31% | 7% | 231 nM | 383 ± 81 µM | 25 ± 2 nmol/mg protein/min | 16 µM | 830 µM | 17.2 µM | 240 µM | three- to four-fold lower affinity | Km (UGT1A8): 206 ± 70 µM; Vmax (UGT1A8): 1.5 ± 0.1 nmol/mg protein/min; Km (UGT1A9): 107 ± 36 µM; Vmax (UGT1A9): 1.7 ± 0.1 nmol/mg protein/min; Ki [3, 13]: 13 µM; Mechanism of inhibition [3, 13]: Competitive; Ki (CYP2C9*1 [4]; [13]): 21 µM; Mechanism of inhibition (CYP2C9*1 [4]; [13]): Mixed; Ki (CYP2C9*1 [4]; 7-hydroxywarfarin formation as marker, mixed inhibition): 103 µM
2 | CC(=O)CC(c1ccccc1)c1c(O)c2ccccc2oc1=O (racemic) [WAR, warfarin] | – | – | – | – | – | – | – | – | – | – | – | – | – | – | – | – | – | – | – | individual concentrations in urine ([1]; female, human, in vivo): 10 to 200 nM; Km (CYP2C9 [8]): 2.6 µM; IC50 (CYP1A2 [9]): 740 µM
3 | CC(=O)C[C@H](c1ccccc1)c1c(O)c2ccccc2oc1=O [R-warfarin, (R) warfarin] | – | – | – | – | – | – | – | – | – | – | – | – | – | – | – | – | – | – | – | Ki (CYP2C9 [10]): ~8 µM; Km (CYP3A4 [11]; 4′-hydroxywarfarin formation): 36 µM; Vmax (CYP3A4 [11]; 4′-hydroxywarfarin formation): 98 pmol product/min/nmol P450; Km (CYP3A4 [11]; 10-hydroxywarfarin formation): 16 µM; Vmax (CYP3A4 [11]; [14]): 1055 pmol product/min/nmol P450; Km (CYP3A7; 4′-hydroxywarfarin formation): 1390 µM; Vmax (CYP3A7; 4′-hydroxywarfarin formation): 260 pmol product/min/nmol P450; Km (CYP3A7; 10-hydroxywarfarin formation): 54 µM; Vmax (CYP3A7; [14]): 116 pmol product/min/nmol P450
4 | CC(=O)CC(c1ccccc1)c1c(O)c2ccc(O)cc2oc1=O (centres unmarked) [7-OH-WAR, 7-hydroxywarfarin] | 80% | 20% | 69% | 1964 nM | 38% | 62% | 28% | 2404 nM | 52% | 48% | 14% | 724 nM | 220 ± 40 µM | 1.0 ± 0.1 nmol/mg protein/min | 35 µM | 400 µM | 45.7 µM | > 500 µM | three- to four-fold lower affinity | Km (UGT1A1): 58.8 ± 24 µM; Vmax (UGT1A1): 1.3 ± 0.1 nmol/mg protein/min; Ki [3, 15]: 64 µM; Mechanism of inhibition [3, 15]: Competitive; Ki, fold higher than the marker Km ([3]; human liver microsomes): 8.5 fold; Ki (CYP2C9*1 [4]; [15]): 10 µM; Mechanism of inhibition (CYP2C9*1 [4]; [15]): Competitive; Ki, fold higher than the marker Km (CYP2C9*1 [4]; recombinant CYP2C9): 4.5 fold; mean unbound concentration in human plasma (estimated) [12]: 6.2 ng/mL
